Measured values published in publication PMC8058344, “ARIH1 signaling promotes anti-tumor immunity by targeting PD-L1 for proteasomal degradation” (Nature Communications, 2021).

Legend:
EGFR = EGFR (Homo sapiens, UniProt P00533); assay: In vitro kinase specificity profiling; assay type: biochemical; details: EGFR wild-type
PD-L1 = PD-L1 phosphorylation sites by mass spectrometry in HEK293T cells transfected with Flag-PD-L1; assay type: cell-based, human; details: Flag-PD-L1, 10 μM ES-072 48 h, MS-MS
Description: Fig. 2 Phosphorylation on S279/S283 impairs the stability of PD-L1. a Mapping PD-L1 phosphorylation sites following ES-072 treatment. HEK293T cells were transfected with Flag-PD-L1 and treated with 10 μM ES-072 for 48 h. Immunoprecipitated PD-L1 was analyzed by mass spectrometry following phosphopeptide enrichment. Peptide ionization data corresponding to Ser279/283 are shown. b Schematic diagram of phosphorylated sites on PD-L1. Full-length PD-L1 was separated into an extracellular domain (ECD) and intracellular domain (ICD). SP: signal peptide; TM: transmembrane domain. c Schematic diagram of phosphorylated sites, S279 and S283 in the ICD of PD-L1. Positions of phosphorylated sites were labeled in red. This image was created by the first author. d Immunoblots of PD-L1 (anti-Flag) in HEK293T cells transfected with Flag-PD-L1 (WT) or Flag-PD-L1 (mutants) following treatment with 25 ng/mL EGF and/or 10 μM ES-072 for 48 h, 2SA represents S279A/S283A. e Immunoblots of PD-L1 (anti-Flag) in HEK293T cells transfected with Flag-PD-L1 (WT/2SA) following treatment with 20 μg/mL cycloheximide (CHX) for indicated times. f Immunoblots of H1975 cell lysates following ES-072 treatment for 2 h, at indicated doses. g HEK293T cells were transfected with Flag-PD-L1 (WT/2SA) following treatment with 10 μM ES-072 for 2 h; PD-L1 was immunoprecipitated with anti-Flag and immunoblotted with indicated antibodies. Flag-tagged empty vector (Flag-EV) was transfected as a negative control. h Representative images of p-PD-L1 (Ser279) and PD-L1 immunohistochemistry (IHC) staining from EGFR wild-type vs. mutant human alveolar adenocarcinoma specimens. Scale bars represent 50 μm. i, j Quantification of IHC analysis for p-PD-L1 (Ser279) (i) and PD-L1 (j) in h. Data represent means ± SEM, n = 7 (i), n = 5 (j), **P < 0.01, P = 0.0013 (i); P = 0.002 (j). k Immunoblottings of p-PD-L1 (Ser279) and PD-L1 in EGFR wild-type (n = 4) vs. mutant (n = 4) human lung adenocarcinoma specimens. Source data are provided as a Source Data file.
Flag-tagged PD-L1 was overexpressed in HEK293T cells and were trypsin-digested. PD-L1 was immunoprecipitated with beads following immunoprecipitation. The resulting peptides were subjected to the phosphopeptide enrichment using TiO2 beads. The enriched phospho-peptides were analyzed on the Q Exactive™ HF mass spectrometer (Thermo Fisher Scientific). The identification and quantification of phosphorylated peptides were done by MaxQuant. The tandem mass spectra were searched against the UniProt human protein database together with a set of commonly observed contaminants. The precursor mass tolerance was set as 20 p.p.m. and the fragment mass tolerance was set as 0.1 Da. The […] cysteine carbamide methylation was set as a static modification and the methionine oxidation, as well as serine, threonine, and tyrosine phosphorylation, were set as variable modifications. The false discovery rate (FDR) at peptide spectrum match level was controlled below 1%.

Chain of EGFR (P00533 25-1210): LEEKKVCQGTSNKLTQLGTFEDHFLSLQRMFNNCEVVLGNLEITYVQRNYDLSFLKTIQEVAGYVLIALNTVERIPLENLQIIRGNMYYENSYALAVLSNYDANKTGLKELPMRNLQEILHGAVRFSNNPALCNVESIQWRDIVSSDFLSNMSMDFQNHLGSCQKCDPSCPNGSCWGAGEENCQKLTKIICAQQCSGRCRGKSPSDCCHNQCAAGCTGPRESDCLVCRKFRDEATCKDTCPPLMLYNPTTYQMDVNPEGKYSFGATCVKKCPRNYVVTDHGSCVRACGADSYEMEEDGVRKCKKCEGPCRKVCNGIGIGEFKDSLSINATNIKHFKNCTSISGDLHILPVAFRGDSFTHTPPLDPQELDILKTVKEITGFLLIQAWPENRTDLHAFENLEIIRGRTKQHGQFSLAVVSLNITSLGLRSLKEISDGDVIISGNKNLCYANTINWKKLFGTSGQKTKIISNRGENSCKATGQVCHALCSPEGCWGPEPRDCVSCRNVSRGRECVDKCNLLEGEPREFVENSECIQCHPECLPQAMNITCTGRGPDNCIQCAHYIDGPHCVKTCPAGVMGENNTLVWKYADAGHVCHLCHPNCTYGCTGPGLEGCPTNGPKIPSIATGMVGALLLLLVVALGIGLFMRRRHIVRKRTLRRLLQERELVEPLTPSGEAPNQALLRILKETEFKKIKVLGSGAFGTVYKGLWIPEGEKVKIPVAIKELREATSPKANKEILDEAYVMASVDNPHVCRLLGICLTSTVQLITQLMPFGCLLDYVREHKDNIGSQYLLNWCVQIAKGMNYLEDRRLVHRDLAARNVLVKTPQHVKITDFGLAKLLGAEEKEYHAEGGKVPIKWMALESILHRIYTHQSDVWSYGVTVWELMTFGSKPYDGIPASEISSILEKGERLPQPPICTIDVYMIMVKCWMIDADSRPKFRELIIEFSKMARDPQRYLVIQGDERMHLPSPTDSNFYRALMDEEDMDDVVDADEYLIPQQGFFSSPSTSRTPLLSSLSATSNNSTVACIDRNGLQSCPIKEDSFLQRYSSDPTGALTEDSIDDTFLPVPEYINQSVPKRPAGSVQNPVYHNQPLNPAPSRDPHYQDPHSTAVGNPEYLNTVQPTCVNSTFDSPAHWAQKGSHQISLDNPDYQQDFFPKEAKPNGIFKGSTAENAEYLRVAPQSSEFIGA

IC50 (EGFR): 8.9 nM
Compound: C=CC(=O)Nc1cccc(Nc2nc(Nc3ccc(N4CCN(C)CC4)nc3OC)ncc2C(F)(F)F)c1 [ES-072]
ES/NC (PD-L1 phosphorylation site S79) (PD-L1): 1.28
ES/NC (PD-L1 phosphorylation site S93) (PD-L1): 1.52
ES/NC (PD-L1 phosphorylation site S170) (PD-L1): 0.00
ES/NC (PD-L1 phosphorylation site S176) (PD-L1): 0.00
ES/NC (PD-L1 phosphorylation site S279) (PD-L1): 5.00
ES/NC (PD-L1 phosphorylation site S283) (PD-L1): 2.06
ES/NC (PD-L1 phosphorylation site T290) (PD-L1): 1.95
